{"source": "patent US11267853B2", "about": "“Carbohydrate tethering at cell surfaces to induce immune response” (University of Rhode Island Board of Trustees, priority 2019, dated 2022)", "key": {"[1]": {"system": "B16-F10 melanoma murine cancer cells (flank tumor)", "assay": "B16-F10 melanoma tumor weight in tri-Gal-immunized A3galt2-knockout mice after IP treatment", "assay_type": "in vivo", "conditions": "B16-F10 flank tumors, IP injections 450 μl of 80 μM for 10 consecutive days (total 60 mg/kg), versus non-treated control group", "text": "Mice deficient in α1-3 gylactosyltransferase 2 (A3galt2) on 129/SvEv-[…] background heterozygous breeding pairs was obtained from Taconic Biosciences. The knockout mouse model is described in the article entitled “Normal development and function of invariant natural killer T cells in mice with isoglobotrihexosylceramide (iGb3) deficiency” by Porubsky et al. PNAS 2007 Apr. 3; 104(14): 5977-5982, incorporated herein by reference in its entirety.\nAll animal studies with the Gal-pHLIP® construct were conducted according to the animal protocol AN1920-003 approved by the Institutional Animal Care and Use Committee at the University of Rhode Island, in compliance with the principles and procedures outlined by the National Institutes of Health for the care and use of animals. Homo- and heterozygous A3galt2-knockout female and male mice on 129/SvEv-C57BL/6J background were used in the study.\nFirst, immunization of mice was performed to develop antibodies against tri-Gal epitope. Briefly, at day 1 mice were immunized with Galα1-3Galβ1-4Glc-HSA (HSA: human serum albumin) from Dextra Laboratories, 20 μg/mouse emulsified in complete Freund's adjuvant. Booster injections of Galα1-3Galβ1-4Glc-HSA emulsified in incomplete Freund's adjuvant were administered at days 13, 20 and 27. […]"}, "[2]": {"system": "HeLa cells (tumor spheroids)", "assay": "Lectin-Cy3 binding to tumor spheroids pre-treated with rhamnose-pHLIP constructs (fluorescence confocal imaging)", "assay_type": "cell-based", "conditions": "HeLa spheroids pre-treated with 0-2 μM construct at pH 6.3, 37° C., 30 min, washed; then Lectin-Cy3 at pH 7.4; compared with lectin-Cy3 alone", "method": "Induction of an immunological response requires a proper positioning of carbohydrate epitope at the surface of tumor cells. This was verified on 3-D tumor cancer cell culture (tumor spheroids). Briefly, a 2% agarose solution was made by dissolving in pH 7.4 PBS. 150 μL of the solution is pipetted into each well of a 48-well flat bottom tissue culture plate. After the agarose gel sufficiently settled (˜1 h), 150 μL of DMEM supplemented with 10% FBS and ciprofloxacin.HCl was added to each well. The covered plate was left in a humidified atmosphere at 37° C. and 5% CO2 in cell culture incubator for 24 h. On the next day, the excess medium was removed from the agarose layer. HeLa cells (10,000 cells) in 200 μL of DMEM containing 2% matrigel were added into each well and incubated for 3-4 days to allow the formation of spheroids. Matrigel was dissolved on ice overnight and added in ice cold DMEM at a concentration of 2.5% (to obtain a final concentration of 2% once added to the wells). Then the mixture was heated to 37° C. before being combined with the cells. Tumor spheroids were incubated in 50 μL of PBS buffer, pH 6.3 containing 0-2 μM Rha-pHLIP® or Rha-PEG12-pHLIP® in a humidified atmosphere of 5% CO2 at 37° C. for 30 min. After treatment, the spheroids were washed several times in 1 mL of PBS. […]"}}, "note": "Primed or numbered codes have the meaning given here. Where no end group is shown, it is not given here. Side-chain parts run from the residue outwards. maleimide = maleimide group (rhamnose-PEG12-maleimide) coupled to the N-terminal Cys of the peptide; PEG12′ = polyethylene glycol spacer of 12 units; Rha = rhamnose", "data": [{"substance": "tri-Gal-PEG4-pHLIP®: tri-Gal-PEG4 (Galα(1,3)Galβ(1,4)Glc-PEG4) coupled with pHLIP® ACDDQNPWRAYLDLLFPTDTLLLDLLWA (SEQ ID NO: 469) (not fully specified (residue 2); also: tri-Gal-PEG4 (Galα(1,3)Galβ(1,4)Glc-PEG4) coupled, site not given here)", "values": [{"measurement": "tumor weight reduction", "setting": "[1]", "value": "About 65%"}]}, {"substance": "Rha-PEG12-pHLIP®: Rhamnose-PEG12-malemide coupled with single Cys at N-terminal end of pHLIP® ACDDQNPWRAYLDLLFPTDTLLLDLLWA (SEQ ID NO: 469) (AC([maleimide-PEG12′-Rha])DDQNPWRAYLDLLFPTDTLLLDLLWA)", "values": [{"measurement": "binding of lectin-Cy3 (fluorescence) to tumor spheroids", "setting": "[2]", "value": "much stronger binding of lectin-Cy3"}]}, {"substance": "AS(Rha)DDQNPWRAYLDLLFPTDTLLLDLLWA [Rha-pHLIP®]", "values": [{"measurement": "binding of lectin-Cy3 (fluorescence) to tumor spheroids", "setting": "[2]", "value": "much stronger binding of lectin-Cy3"}]}]}
